Residues, ends and D or L forms follow the SMILES beside them.

In assay [1] the test system is OVA-sensitized C57BL/6J mice. In words: OVA murine model of experimentally-induced asthma (lung histology). The assay is classed as in vivo. The settings on record: 0.3 mg/kg every other day for 10 days. The text has this: Murine Model of Experimentally-Induced Asthma. C57BL/6J mice (12-14 wk old) from Jackson Laboratory (Bar Harbor, ME) were housed in sterile autoclavable microisolation cages and fed standard laboratory mouse chow and water ad libitum. All protocols were approved by the Institutional Animal Care and Use Committee (IACUC) of the Medical College of Wisconsin.
C57BL/6J mice were divided into three groups; a control group (Control), an ovalbumin (OVA)-sensitized group and an OVA-sensitized group treated with KYC. OVA sensitization was achieved using a modification of a protocol previously described by de Siqueira et al^15 (Fig. 1). […] When mice inhale aerosolized OVA, robust allergic responses are routinely observed.
Briefly, on day one, mice were anesthetized (halothane; Halocarbon Laboratories, River Edge, NJ) and a heat-denatured OVA fragment (∼80 mg, 5 × 2 × 2 mm) was implanted subcutaneously in the dorsal aspect of the neck. The incision was closed with stainless steel clips and the mouse was allowed to recover. Implantation of the heat-denatured OVA fragment initiates sensitization. On day fifteen, the implanted mice were exposed to aerosolized OVA (6% in PBS) for 30 minutes every other day for ten days. Twenty-four hours after the last OVA challenge, the mice were deeply anesthetized (halothane), sacrificed by exsanguination and the lungs removed for analysis. […]

The test system of assay [2] is SCD mice. In words: Vasodilatation of pressurized facialis arteries from treated SCD mice. The assay is classed as in vivo. The note with it: IP 0.3 mg/kg/d for 3 weeks; response to ACh; untreated SCD ∼20%. The procedure: Murine Model of Sickle Cell Disease. Mice treated with KYC in vivo. SCD mice were treated with KYC (intraperitoneal injection: IP 0.3 mg/kg/d) or with PBS (IP 100 µL) for 3 weeks. Anesthesia was induced with Ketamine (100mg/kg) + Xylazine (10mg/kg) cocktail (ip) and then sacrificed by exsanguination. Facialis arteries were atraumatically dissected and maintained in cooled MOPS solution (in mM: NaCl 145, KCL 4.7, CaCl2 2, NaH2PO4 1.2, MgSO4, 1.2, pyruvate 2, EDTA 0.02, MOPS 3.0, and glucose 5.0, at pH 7.4). Vessels were then submerged in a MOPS bath, mounted on MOPS-containing glass capillary tubes, internally pressurized (60 mmHg), and warmed to 37°C. Internal vascular diameters were measured with a calibrated video-microscope (Boeckeler). After the vessel was allowed to acclimate to 37°C (approximately 30 min), the diameter was measured and recorded (Dmax). […] A control dose-response curve using acetylcholine (ACh, 10^-7 - 10^-4 M) was performed and vessel diameter recorded. […] Vasodilation to papaverine (2.0X10^-4 M) was determined after all treatments to ensure smooth muscle viability. Vasodilation was calculated as a percent of maximal vessel diameter change.
Vasodilatation. […] Physiological responses to increasing concentrations of acetylcholine (ACh) were determined by videomicroscopy as previously described.

Assay [3] deals with MPO. As to the kind of experiment: MPO-mediated nitration of bovine serum albumin (western blot). The format is biochemical. The settings on record: for MPO-mediated BSA nitration: H2O2 100 µM, nitrite 100 µM. The procedure:
MPO-mediated Nitration of Bovine Serum Albumin (BSA). BSA (0.5 mg/mL) was incubated with MPO (20 nM), H2O2 (100 µM), nitrite (100 µM) and increasing concentrations of KYC in phosphate buffer (100 mM, pH 7.4) containing DTPA (100 µM) for 30 min. Reactions were stopped by addition of catalase. Nitrotyrosine formation was assessed by western blot analysis.
MPO-mediated Nitration of Bovine Serum Albumin (BSA): BSA (0.5 mg/mL) was incubated with MPO (20 nM), H2O2 (25 µM), NaNO2 (50 µM) and increasing concentrations of KYC in phosphate buffer (100 mM, pH 7.4) containing DTPA (100 µM) for 30 min. Reactions were halted by addition of catalase (2,000 units/mL). NO2Tyr formation was assessed by western blot analysis with an anti-NO2Tyr rabbit polyclonal antibody (EMD, Gibbstown, NJ).
On the technique in general: Immunoblotting shows a protein as a band on a membrane.

For the molecule `CC(=O)N[C@@H](CCCCN)C(=O)N[C@@H](Cc1ccc(O)cc1)C(=O)N[C@@H](CS)C(N)=O` [KYC, N-acetyl Lysyltyrosylcysteine amide] (Ac-Lys-Tyr-Cys-NH2), in assay [1] (H&E), the “eosinophil infiltration in the lungs” value is on record as “markedly reduce eosinophil infiltration to essentially control levels”. Moreover, the “collagen deposition in the lungs” value in assay [1] (McLetchie trichrome) is on record as “markedly reduces collagen deposition to control levels”. Besides, the “vasodilatation, percent of maximal vessel diameter change” value in assay [2] is approximately 60%. The “MPO-mediated BSA nitration” value in assay [3] (30 µM) is on record as “inhibits”; in assay [3] (250 µM), “essentially ablates”. Also, in assay [3] (50 µM, H2O2 25 µM, NaNO2 50 µM), the “NO2Tyr formation in BSA” value is recorded as “essentially ablated”.
